These results are taken from PubChem BioAssay (NCI).

Several values for one entry are separate records, joined by “and”; a condition that tells them apart may be missing. Equal values may be shown once.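 How tested: cells in 96-well plates exposed to compound for 48 hours at five concentrations. Abbreviation: GI50, concentration required for 50% inhibition of growth. At the TGI there is no net growth.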

Test systems include ACHN renal; CCRF-CEM leukemia; TK-10 renal; OVCAR-8 ovarian; EKVX NSCLC; HOP-92 NSCLC; NCI-H23 lung; NCI-H226 lung; UACC-62 melanoma; HCC-2998 colon.
Common to all, as to test: growth of human tumour cells (NCI), 48 h

With `COc1ccc(F)c(F)c1C(=O)c1cnc(NC2CCN(S(C)(=O)=O)CC2)nc1N`, the GI50 was 0.439 µM and 0.272 µM with ACHN renal; 0.431 µM and 0.237 µM in the experiment with CCRF-CEM leukemia; 0.493 µM and 0.333 µM in the experiment with TK-10 renal; 1.18 µM and 0.58 µM in the experiment with OVCAR-8 ovarian; 0.923 µM with EKVX NSCLC; 0.25 µM and 0.43 µM in the experiment on HOP-92 NSCLC. In addition, the GI50 is 0.814 µM and 0.397 µM with NCI-H23 lung; 1.28 µM and 0.408 µM in the experiment on NCI-H226 lung; 0.655 µM and 0.284 µM with UACC-62 melanoma; 0.961 µM and 0.987 µM with HCC-2998 colon. For the same compound, the TGI in the experiment on ACHN renal is more than 100 µM; with CCRF-CEM leukemia, more than 8.34 µM; in the experiment on TK-10 renal, more than 20.3 µM; in the experiment with OVCAR-8 ovarian, more than 100 µM; with EKVX NSCLC, 7.73 µM; in the experiment with HOP-92 NSCLC, 3.46 µM and 5.53 µM. The TGI in the experiment on NCI-H23 lung was 5.28 µM and 3.3 µM; in the experiment on NCI-H226 lung, more than 24.4 µM; with UACC-62 melanoma, 2.77 µM and 2.45 µM; in the experiment on HCC-2998 colon it was > 26.8 µM and 5.65 µM.

Take `CC1c2ccccc2N=C2SC(=S)N3CCN=C3N21` (configuration not stated): the GI50 was more than 100 µM in the experiment with ACHN renal; more than 100 µM with CCRF-CEM leukemia; more than 100 µM with TK-10 renal; more than 100 µM in the experiment with OVCAR-8 ovarian; 4.33 µM in the experiment with EKVX NSCLC; more than 100 µM with HOP-92 NSCLC. Moreover, the GI50 in the experiment on NCI-H23 lung, in the experiment with NCI-H226 lung, in the experiment with UACC-62 melanoma and with HCC-2998 colon was more than 100 µM throughout. The TGI in the experiment on ACHN renal, in the experiment on CCRF-CEM leukemia, in the experiment with TK-10 renal, in the experiment with OVCAR-8 ovarian, in the experiment with EKVX NSCLC and in the experiment on HOP-92 NSCLC was more than 100 µM in each case. Further, the TGI in the experiment on NCI-H23 lung, in the experiment with NCI-H226 lung, with UACC-62 melanoma and in the experiment on HCC-2998 colon was more than 100 µM in each case.

Regarding `CC1(O)CCn2c(=O)c3cc4ccccc4cc3c(=O)n2C1O` (configuration not stated), the TGI in the experiment with ACHN renal, in the experiment on CCRF-CEM leukemia, with TK-10 renal, in the experiment with OVCAR-8 ovarian, with EKVX NSCLC and in the experiment with HOP-92 NSCLC was more than 100 µM in each case. Moreover, the TGI with NCI-H23 lung, with NCI-H226 lung, with UACC-62 melanoma and in the experiment with HCC-2998 colon was more than 100 µM in each case.

Turning to `[2H]c1nc(=Nc2cc(NC(=O)C=C)c(N(C)CCN(C)C)cc2OC)[nH]c(-c2cn(C([2H])([2H])[2H])c3ccccc23)c1[2H]`, the GI50 in the experiment on ACHN renal is 0.0836 µM; in the experiment with TK-10 renal it was 0.0802 µM; with OVCAR-8 ovarian, 4 µM; in the experiment on EKVX NSCLC, 0.853 µM; in the experiment on HOP-92 NSCLC it was 1.04 µM; in the experiment on NCI-H23 lung, 3.14 µM. Moreover, the results for the GI50 in the experiment on NCI-H226 lung, in the experiment with UACC-62 melanoma and in the experiment with HCC-2998 colon were 2.45 µM, 1.72 µM and 1.44 µM, respectively. Also, the TGI in the experiment on ACHN renal came out at 1.65 µM; in the experiment on TK-10 renal, 3.8 µM; in the experiment on OVCAR-8 ovarian, 24.5 µM; with EKVX NSCLC it was 11.5 µM; in the experiment with HOP-92 NSCLC, 2.45 µM; in the experiment on NCI-H23 lung it was 15.5 µM. Moreover, the figures for the TGI with NCI-H226 lung, in the experiment with UACC-62 melanoma and with HCC-2998 colon were 26 µM, 3.28 µM and 2.8 µM, respectively.

With `O=C(CC1(O)C(=O)Nc2c(Cl)ccc(Cl)c21)c1ccc(Cl)cc1Cl` (configuration not stated), the TGI with ACHN renal is 30.5 µM; in the experiment on TK-10 renal, more than 100 µM; with OVCAR-8 ovarian, 41.6 µM; in the experiment with EKVX NSCLC, 44 µM; in the experiment with HOP-92 NSCLC it was 49.6 µM; with NCI-H23 lung, 43.3 µM. In addition, the TGI in the experiment with NCI-H226 lung was 30.5 µM; in the experiment with UACC-62 melanoma, 34.9 µM; in the experiment on HCC-2998 colon, 32.2 µM.

In the case of `Cc1nc(-c2cccnc2)sc1C(=O)/C=C/c1cccc([N+](=O)[O-])c1`, the TGI with CCRF-CEM leukemia, with TK-10 renal, in the experiment on OVCAR-8 ovarian, with EKVX NSCLC, with HOP-92 NSCLC and with NCI-H23 lung was more than 100 µM in each case. For the same compound, the TGI with NCI-H226 lung, in the experiment with UACC-62 melanoma and with HCC-2998 colon was more than 100 µM each time.

Take `O=C1CNS(=O)(=O)N1`: the TGI with CCRF-CEM leukemia, in the experiment with TK-10 renal, with OVCAR-8 ovarian, with EKVX NSCLC, in the experiment with HOP-92 NSCLC and with NCI-H23 lung was more than 100 µM throughout. The TGI in the experiment on NCI-H226 lung, in the experiment on UACC-62 melanoma and with HCC-2998 colon was more than 100 µM each time.

As for `CN(C)C(=S)Nc1nnc(Nc2ccccc2)s1`, the TGI in the experiment with ACHN renal, with CCRF-CEM leukemia, in the experiment on OVCAR-8 ovarian, in the experiment on EKVX NSCLC, in the experiment on HOP-92 NSCLC and in the experiment on NCI-H23 lung was more than 100 µM throughout. Also, the TGI in the experiment with NCI-H226 lung and with HCC-2998 colon was more than 100 µM in each case.

Turning to `O=C(O)c1ccccc1C(=O)c1ccc2c(c1)Cc1ccccc1-2`, the TGI in the experiment on ACHN renal, with TK-10 renal, in the experiment with OVCAR-8 ovarian, in the experiment on EKVX NSCLC, with HOP-92 NSCLC and with NCI-H23 lung was more than 100 µM throughout. Also, the TGI in the experiment on NCI-H226 lung is more than 100 µM; in the experiment with UACC-62 melanoma, more than 100 µM; in the experiment on HCC-2998 colon it was 88 µM.

Consider `N#CC(C#N)=c1c2nsnc2c(=C(C#N)C#N)c2nsnc12`, for which the TGI amounted to 3.23 µM with ACHN renal; 31.3 µM with TK-10 renal; 3.12 µM in the experiment on OVCAR-8 ovarian; 14.9 µM in the experiment with EKVX NSCLC; 3.35 µM in the experiment with HOP-92 NSCLC; 3.91 µM in the experiment with NCI-H23 lung. Further, the figures for the TGI with NCI-H226 lung and in the experiment on HCC-2998 colon were 31.9 µM and 3.25 µM, respectively.

As for `COC(=O)C1C(=O)N(CCc2c[nH]c3ccccc23)C[C@@H]2CCC(=O)C[C@H]12` (some centres not stated), the TGI in the experiment on CCRF-CEM leukemia, in the experiment on TK-10 renal, in the experiment on OVCAR-8 ovarian, with EKVX NSCLC, in the experiment with HOP-92 NSCLC and in the experiment on NCI-H23 lung was more than 100 µM each time. Further, the TGI in the experiment with UACC-62 melanoma and with HCC-2998 colon was more than 100 µM each time.

For `O=C1c2cccc3cccc(c23)C(=O)N1O`, the TGI in the experiment on ACHN renal is more than 100 µM; with CCRF-CEM leukemia it was more than 100 µM; in the experiment on TK-10 renal it was more than 100 µM; with OVCAR-8 ovarian it was more than 100 µM; with EKVX NSCLC, more than 100 µM; with HOP-92 NSCLC, 94.5 µM. Also, the TGI in the experiment with NCI-H23 lung, in the experiment on UACC-62 melanoma and with HCC-2998 colon was more than 100 µM in each case.
